# Legend:
# [1] = system: NCI-H1975; assay: Antiproliferative activity against human NCI-H1975 cells harboring EGFR L858R/T790M double mutant assessed as reduction in cell growth incubated for 72 hrs by CellTiter-Glo luminescent assay; format: functional, cell-based; conditions: NCI-H1975, 72 h
# [2] = system: PC-9; assay: Antiproliferative activity against human PC-9 cells harboring EGFR Del19 mutant assessed as inhibition of cell growth incubated for 72 hrs by CCK8 assay; format: functional, cell-based; conditions: PC-9, 72 h
# [3] = system: LoVo; assay: Antiproliferative activity against human LoVo cells harboring wild-type EGFR assessed as reduction in cell growth incubated for 72 hrs by CCK8 assay; format: functional, cell-based
# [4] = system: LoVo; assay: Antiproliferative activity against human LoVo cells harboring wild-type EGFR assessed as reduction in cell viability; format: functional, cell-based
# [5] = system: PC-9; assay: Antiproliferative activity against human PC-9 cells harboring EGFR del19 mutant assessed as cell growth inhibition incubated for 72 hrs by CellTiter Glo assay; format: functional, cell-based; conditions: PC-9, 72 h
# [6] = target: T1, Epidermal growth factor receptor (Homo sapiens, UniProt P00533, L858R/T790M); assay: Inhibition of EGFR L858R/T790M (unknown origin)
# T1 sequence (P00533 25-1210 T790M/L858R limits assumed): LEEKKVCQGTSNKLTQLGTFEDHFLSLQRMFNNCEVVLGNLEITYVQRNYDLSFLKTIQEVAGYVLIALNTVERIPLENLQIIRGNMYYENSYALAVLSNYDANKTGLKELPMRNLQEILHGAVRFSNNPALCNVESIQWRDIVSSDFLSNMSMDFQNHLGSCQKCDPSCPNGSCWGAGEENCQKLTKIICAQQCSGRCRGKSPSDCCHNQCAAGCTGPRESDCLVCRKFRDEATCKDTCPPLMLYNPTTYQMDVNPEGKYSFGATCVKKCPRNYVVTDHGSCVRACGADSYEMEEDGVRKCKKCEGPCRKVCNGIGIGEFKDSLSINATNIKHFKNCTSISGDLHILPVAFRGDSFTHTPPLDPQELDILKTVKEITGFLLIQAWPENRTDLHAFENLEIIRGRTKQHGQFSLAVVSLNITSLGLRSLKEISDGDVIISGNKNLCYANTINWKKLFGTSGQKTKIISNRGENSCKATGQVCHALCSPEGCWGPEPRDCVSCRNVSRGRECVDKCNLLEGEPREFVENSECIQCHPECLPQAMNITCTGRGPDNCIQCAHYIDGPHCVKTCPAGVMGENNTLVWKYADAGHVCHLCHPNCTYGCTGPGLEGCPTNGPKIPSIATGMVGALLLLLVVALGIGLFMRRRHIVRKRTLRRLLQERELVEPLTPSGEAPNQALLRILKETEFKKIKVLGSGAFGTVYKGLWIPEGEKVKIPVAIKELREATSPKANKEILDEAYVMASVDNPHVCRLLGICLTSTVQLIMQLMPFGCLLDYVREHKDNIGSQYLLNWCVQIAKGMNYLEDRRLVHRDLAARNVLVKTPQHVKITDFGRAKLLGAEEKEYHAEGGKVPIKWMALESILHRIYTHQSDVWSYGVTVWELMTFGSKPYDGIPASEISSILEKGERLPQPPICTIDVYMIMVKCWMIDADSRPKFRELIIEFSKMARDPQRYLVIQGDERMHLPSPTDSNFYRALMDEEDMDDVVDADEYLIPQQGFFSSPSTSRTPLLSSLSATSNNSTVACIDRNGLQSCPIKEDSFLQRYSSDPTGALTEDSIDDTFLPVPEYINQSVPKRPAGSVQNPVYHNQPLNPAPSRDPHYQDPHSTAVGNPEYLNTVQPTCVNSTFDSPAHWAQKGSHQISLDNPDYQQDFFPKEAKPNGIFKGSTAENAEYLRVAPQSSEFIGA
# [7] = Antiproliferative activity against mouse KC-0116 cells; format: toxicity, cell-based
# [8] = Antiproliferative activity against mouse Ba/F3 EGFR-T790M/L858R cells incubated for 3 days by Cell Titer-Glo assay; format: functional, cell-based; conditions: 72 h
# [9] = system: PC-9; assay: Cytotoxicity against human PC-9 cells assessed as reduction in cell viability incubated for 48 hrs by CCK-8 assay; format: functional, cell-based; conditions: PC-9, 48 h
# [10] = system: NCI-H1975; assay: Cytotoxicity against human NCI-H1975 cells assessed as reduction in cell viability incubated for 48 hrs by CCK-8 assay; format: functional, cell-based; conditions: NCI-H1975, 48 h
# [11] = system: NCI-H292; assay: Cytotoxicity against human NCI-H292 cells assessed as reduction in cell viability incubated for 48 hrs by CCK-8 assay; format: functional, cell-based; conditions: NCI-H292, 48 h
# [12] = system: NCI-H1975; assay: Antiproliferative activity against human NCI-H1975 cells; format: functional, cell-based
# [13] = target: T1, Epidermal growth factor receptor; assay: Inhibition of EGFR L858R/T790M mutant (unknown origin)
# [14] = target: Epidermal growth factor receptor (Homo sapiens, UniProt P00533); assay: Inhibition of wild-type EGFR (unknown origin) using TK as substrate incubated for 120 mins in presence of ATP by HTRF assay
# Epidermal growth factor receptor (Homo sapiens, UniProt P00533), sequence (P00533 whole entry): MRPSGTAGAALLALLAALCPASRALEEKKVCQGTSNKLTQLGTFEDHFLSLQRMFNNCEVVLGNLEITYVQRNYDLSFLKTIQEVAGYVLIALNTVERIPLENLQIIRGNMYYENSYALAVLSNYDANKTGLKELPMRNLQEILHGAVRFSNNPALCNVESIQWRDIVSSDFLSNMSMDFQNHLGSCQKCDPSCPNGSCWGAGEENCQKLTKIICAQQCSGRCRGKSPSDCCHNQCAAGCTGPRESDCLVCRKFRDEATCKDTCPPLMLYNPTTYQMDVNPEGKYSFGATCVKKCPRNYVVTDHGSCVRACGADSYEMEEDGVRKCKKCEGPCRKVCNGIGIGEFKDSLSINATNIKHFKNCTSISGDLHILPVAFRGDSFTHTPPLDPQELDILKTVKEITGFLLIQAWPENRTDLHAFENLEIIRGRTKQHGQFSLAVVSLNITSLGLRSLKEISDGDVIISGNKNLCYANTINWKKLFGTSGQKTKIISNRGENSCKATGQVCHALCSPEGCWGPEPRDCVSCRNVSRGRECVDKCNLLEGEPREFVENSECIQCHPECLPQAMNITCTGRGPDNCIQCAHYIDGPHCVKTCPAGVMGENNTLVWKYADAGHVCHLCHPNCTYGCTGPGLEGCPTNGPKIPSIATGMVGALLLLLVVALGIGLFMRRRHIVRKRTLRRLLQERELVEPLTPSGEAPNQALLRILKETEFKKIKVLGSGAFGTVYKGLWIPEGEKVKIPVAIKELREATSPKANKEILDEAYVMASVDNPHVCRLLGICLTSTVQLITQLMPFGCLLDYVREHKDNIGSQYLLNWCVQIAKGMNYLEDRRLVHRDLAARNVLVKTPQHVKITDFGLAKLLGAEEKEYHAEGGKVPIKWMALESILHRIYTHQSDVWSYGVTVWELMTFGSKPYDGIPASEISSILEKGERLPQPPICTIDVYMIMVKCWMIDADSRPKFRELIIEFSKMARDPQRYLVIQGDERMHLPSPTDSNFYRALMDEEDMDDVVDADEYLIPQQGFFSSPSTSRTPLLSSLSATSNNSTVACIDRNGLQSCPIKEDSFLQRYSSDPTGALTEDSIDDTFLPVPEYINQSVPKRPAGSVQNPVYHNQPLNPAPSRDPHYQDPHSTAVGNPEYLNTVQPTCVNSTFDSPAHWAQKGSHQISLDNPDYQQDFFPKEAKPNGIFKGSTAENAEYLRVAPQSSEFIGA
# [15] = system: A-431; assay: Antiproliferative activity against human A-431 cells assessed as reduction in cell viability incubated for 48 hrs by MTT assay; format: functional, cell-based; conditions: A-431, 48 h
# [16] = system: NCI-H1975; assay: Antiproliferative activity against human NCI-H1975 cells assessed as reduction in cell viability incubated for 72 hrs by Cell-titer glo assay; format: functional, cell-based; conditions: NCI-H1975, 72 h
structure (smiles),measurement,setting,value
C=CC(=O)Nc1cc(Nc2ncc(Cl)c(-c3cnn4ccccc34)n2)c(OC)cc1N1CCN(C(=O)CN(C)C)CC1,IC50,[1],16 nM
same,IC50,[2],73 nM
same,IC50,[3],10000 nM
C=CC(=O)Nc1cc(Nc2ncc(Cl)c(-c3cnn4ccccc34)n2)c(OC)cc1N1CCN(C(=O)[C@H](C)N)CC1,IC50,[1],19 nM
same,IC50,[2],28 nM
same,IC50,[3],1600 nM
C=CC(=O)Nc1cc(Nc2ncc(Cl)c(-c3cnn4ccccc34)n2)c(OC)cc1N1CCN(C(=O)CNC)CC1,IC50,[1],66 nM
same,IC50,[2],156 nM
same,IC50,[3],7500 nM
C=CC(=O)Nc1cc(Nc2ncc(Cl)c(-c3cnn4ccccc34)n2)c(OC)cc1N1CCN(C(=O)[C@H](C)O)CC1,IC50,[1],75 nM
same,IC50,[2],179 nM
same,IC50,[3],10300 nM
C=CC(=O)Nc1cc(Nc2ncc(Cl)c(-c3cnn4ccccc34)n2)c(OC)cc1N1CCN(C(=O)[C@@H](C)N)CC1,IC50,[1],177 nM
same,IC50,[2],351 nM
same,IC50,[3],9000 nM
C=CC(=O)Nc1cc(Nc2ncc(Cl)c(-c3cnn4ccccc34)n2)c(OC)cc1N1CC[C@@H](N(C)C)C1,IC50,[1],2 nM
same,IC50,[2],16 nM
same,IC50,[3],3360 nM
C=CC(=O)Nc1cc(Nc2ncc(Cl)c(-c3cnn4ccccc34)n2)c(OC)cc1N(C)CCN(C)C,IC50,[1],0.6 nM
same,IC50,[2],2 nM
same,IC50,[3],145 nM
C=CC(=O)Nc1cc(Nc2ncc(Cl)c(-c3cnn4ccccc34)n2)c(OC)cc1N1CC(N(C)C)C1,IC50,[2],21 nM
same,IC50,[3],938 nM
C=CC(=O)Nc1cc(Nc2ncc(C#N)c(-c3cn(C)c4ccccc34)n2)c(OC)cc1N(C)CCN(C)C,IC50,[1],0.9 nM
same,IC50,[4],46 nM
same,IC50,[5],2 nM
C=CC(=O)Nc1cc(Nc2ncc(Cl)c(-c3cn(C)c4ccccc34)n2)c(OC)cc1N(C)CCN(C)C,IC50,[1],2 nM
same,IC50,[4],58 nM
same,IC50,[5],2 nM
C=CC(=O)Nc1cc(Nc2ncc(Cl)c(-c3c[nH]c4ccccc34)n2)c(OC)cc1N(C)CCN(C)C,IC50,[1],0.2 nM
same,IC50,[4],11 nM
same,IC50,[5],0.6 nM
C=CC(=O)Nc1cc(Nc2ncc(C)c(-c3cn(C)c4ccccc34)n2)c(OC)cc1N(C)CCN(C)C,IC50,[1],1 nM
same,IC50,[4],71 nM
C=CC(=O)Nc1cc(Nc2nccc(-c3c[nH]c4ccccc34)n2)c(OC)cc1N(C)CCN(C)C,IC50,[1],2 nM
same,IC50,[4],33 nM
same,IC50,[5],2 nM
C#CCN(C)CCN(C)c1cc(OC)c(Nc2nccc(Nc3ccn(C)n3)n2)cc1NC(=O)C=C,IC50,[6],8.58 nM
C=CC(=O)Nc1cc(Nc2nccc(Nc3ccn(C)n3)n2)c(OC)cc1N(C)CCN(C)C,IC50,[6],6.1 nM
C=CC(=O)Nc1cc(Nc2nccc(Nc3ccn(C)n3)n2)c(OC)cc1N(C)CCN(C)CC(=O)OC,IC50,[6],42.3 nM
C=CC(=O)Nc1cc(Nc2nccc(Nc3cnn(CC)c3)n2)c(OC)cc1N(C)CCN(C)C,IC50,[6],8 nM
COc1cc(N(C)CCN(C)C)c(NC(=O)c2ccnc(Cl)c2)cc1Nc1nccc(-c2cn(CCCO)c3ccccc23)n1,IC50,[6],137 nM
COc1cc(N(C)CCN(C)C)c(NC(=O)c2cnccn2)cc1Nc1nccc(-c2cn(C)c3ccccc23)n1,IC50,[6],> 500 nM
COc1cc(N(C)CCN(C)C)c(NC(=O)c2ccncc2OC)cc1Nc1nccc(-c2cn(C)c3ccccc23)n1,IC50,[6],> 500 nM
COc1cc(N(C)CCN(C)C)c(NC(=O)c2ncccn2)cc1Nc1nccc(-c2cn(C)c3ccccc23)n1,IC50,[6],> 500 nM
COc1cc(N(C)CCN(C)C)c(NC(=O)c2ccncn2)cc1Nc1nccc(-c2cn(C)c3ccccc23)n1,IC50,[6],242 nM
COc1cc(N(C)CCN(C)C)c(NC(=O)c2ccncn2)cc1Nc1nccc(-c2cn(CCCO)c3ccccc23)n1,IC50,[6],161 nM
COc1cc(N(C)CCN(C)C)c(NC(=O)c2ccnc(Cl)c2)cc1Nc1nccc(-c2cn(C)c3ccccc23)n1,IC50,[6],420 nM
COc1cc(N2CCC(N(C)C)CC2)c(NC(=O)CO)cc1Nc1nccc(-c2cn(C)c3ccccc23)n1,IC50,[7],460 nM
same,IC50,[8],480 nM
CN(C)C1CCN(c2ccc(Nc3nccc(-c4cn(C)c5ccccc45)n3)cc2NS(C)(=O)=O)CC1,IC50,[7],160 nM
same,IC50,[8],170 nM
C=CC(=O)Nc1cc(Nc2nccc(-c3csc4ccccc34)n2)c(OC)cc1N1CCN(C(C)C)CC1,IC50,[9],1300 nM
same,IC50,[10],130 nM
same,IC50,[11],> 10000 nM
COc1cc(N(C)CCN(C)C)c(NC(=O)CN)cc1Nc1nccc(-c2cn(C)c3ccccc23)n1,IC50,[7],1320 nM
same,IC50,[8],2720 nM
Cn1cc(-c2ccnc(Nc3cccc(NC(=O)CCN)c3)n2)c2ccccc21,IC50,[7],4990 nM
same,IC50,[8],4770 nM
Cn1cc(-c2ccnc(Nc3ccc(N4CCC(N5CCOCC5)CC4)cc3)n2)c2ccccc21,IC50,[7],1710 nM
same,IC50,[8],5740 nM
COCC(=O)Nc1cc(Nc2nccc(-c3cn(C)c4ccccc34)n2)c(OC)cc1N1CCC(N(C)C)CC1,IC50,[7],460 nM
same,IC50,[8],450 nM
C=CC(=O)Nc1cc(Nc2ncc(F)c(-c3csc4ccccc34)n2)c(OC)cc1N(C)CCNC(C)C,IC50,[9],30 nM
same,IC50,[10],13 nM
same,IC50,[11],3960 nM
C=CC(=O)Nc1cc(Nc2nccc(-c3cn(C)c4ccccc34)n2)c(OC)cc1N(C)CCN(C)Cc1ccc(Br)cc1,IC50,[6],8.1 nM
same,IC50,[12],20 nM
CN(C)C1CCN(c2ccc(Nc3nccc(-c4cn(C)c5ccccc45)n3)cc2NS(=O)(=O)C2CC2)CC1,IC50,[7],240 nM
same,IC50,[8],250 nM
C=CC(=O)Nc1cc(Nc2nccc(-c3csc4ccccc34)n2)c(OC)cc1N(C)CCN(C)C,IC50,[13],0.26 nM
same,IC50,[9],4 nM
same,IC50,[10],2 nM
same,IC50,[11],4400 nM
same,IC50,[14],4.11 nM
C=CC(=O)Nc1cc(Nc2nccc(-c3csc4ccccc34)n2)c(OC)cc1N1CCN(CC)CC1,IC50,[9],800 nM
same,IC50,[10],90 nM
same,IC50,[11],> 10000 nM
CN(C)C1CCN(c2ccc(Nc3nccc(-c4cn(C)c5ccccc45)n3)cc2)CC1,IC50,[7],400 nM
same,IC50,[8],450 nM
CN1CCN(C2CCN(c3ccc(Nc4nccc(-c5cn(C)c6ccccc56)n4)cc3NS(=O)(=O)C3CC3)CC2)CC1,IC50,[7],170 nM
same,IC50,[8],200 nM
COc1cc(N(C)CCN(C)C)c(NC(=O)CNC(=O)OC(C)(C)C)cc1Nc1nccc(-c2cn(C)c3ccccc23)n1,IC50,[7],1290 nM
same,IC50,[8],1280 nM
C=CC(=O)Nc1cc(Nc2ncc(Cl)c(-c3cn(C4CC4)c4ccccc34)n2)c(OC)cc1N(C)CCN(C)C,IC50,[15],59 nM
same,IC50,[16],8.15 nM
C=CC(=O)Nc1cc(Nc2nccc(-c3csc4ccccc34)n2)c(OC)cc1N(C)CCCN(C)C,IC50,[9],300 nM
same,IC50,[10],170 nM
same,IC50,[11],4000 nM
C=CC(=O)Nc1cc(Nc2nccc(-c3cn(C)c4ccccc34)n2)c(OC)cc1N(C)CCN(C)Cc1ccccc1,IC50,[12],4 nM
C=CC(=O)Nc1cc(Nc2nccc(-c3csc4ccccc34)n2)c(OC)cc1N1CCN(C)CC1,IC50,[9],1900 nM
same,IC50,[10],500 nM
same,IC50,[11],> 10000 nM
Cn1cc(-c2ccnc(Nc3ccc(N4CCOCC4)cc3)n2)c2ccccc21,IC50,[7],7000 nM
same,IC50,[8],> 10000 nM
C=CC(=O)Nc1cc(Nc2nccc(-c3cn(C)c4ccccc34)n2)c(OC)cc1N(C)CCN(C)C(=O)c1ccc(Br)cc1,IC50,[6],12.5 nM
same,IC50,[12],30 nM
C=CCCN(C)CCN(C)c1cc(OC)c(Nc2nccc(-c3cn(C)c4ccccc34)n2)cc1NC(=O)C=C,IC50,[6],2 nM
same,IC50,[12],2 nM
Cn1cc(-c2ccnc(Nc3ccc(N4CCCCC4)cc3)n2)c2ccccc21,IC50,[7],10000 nM
same,IC50,[8],> 10000 nM
C=CC(=O)Nc1cc(Nc2nccc(-c3cn(C)c4ccccc34)n2)c(OC)cc1N(C)CCN(C)CC(=O)OC,IC50,[6],5.7 nM
same,IC50,[12],8 nM
COc1cc(N2CCC(N3CCN(C)CC3)CC2)ccc1Nc1ncc(Cl)c(Nc2ccccc2P(C)(C)=O)n1 [BRIGATINIB],IC50,[7],350 nM
same,IC50,[8],450 nM
C=CC(=O)Nc1cc(Nc2nccc(-c3cn(C)c4ccccc34)n2)c(OC)cc1N(C)CCN(C)C [OSIMERTINIB],IC50,[5],[…]
same,IC50,[11],2000 nM
